Results: patent publication US20180251847A1, “METHOD OF PREDICTING THE TUMOR RESPONSE TO DNA METHYLATION INHIBITORS AND ALTERNATIVE THERAPEUTIC REGIMEN FOR OVERCOMING RESISTANCE” (PALACKY UNIVERSITY, OLOMOUC, priority 2014, published 2018)
Structures can show the parent of a compound that is named as a salt. Where two headings read alike, the source gives them in different places.

Key:
Parameters in all cases: species or system human
R1.2 (HCT116-RDAC) = test: MTT based cell survival assay, DAC resistant HCT116 clone R1.2; details: for fold change (resistance index): IC50 R1.2 / IC50 HCT116; for IC50: read-out: Mean IC50
Description: (§1) The DAC resistant HCT116 cell lines were developed using two methods.
(§2) The method is primarily based on reduction of yellow colored tetrazolium salt, 3-(4,5-dimethylthiazol-2-yl)-2,5-diphenyltetrazolium bromide (MTT) to insoluble purple colored formazan crystals by NAD(P)H-dependent oxidoreductase enzymes in mitochondria of the viable cell.
(§3) Cells in 80 μL of medium were plated in each of the experimental and the control wells, followed by addition of 20 μL medium with five-fold drug concentration to experimental wells. The wells with medium alone were included alongside as blank for absorbance readings. After 72 h of drug treatment, 10 μL MTT (Sigma-Aldrich) prepared in 1×PBS (5 mg/mL) was added to all wells including blank and control, and incubated until the purple formazan crystals were visible after which 100 μL of detergent (10% SDS, pH: 5.5) was added and the plates were incubated overnight to solubilize the formazan and the cellular material.
(§4) Cross resistance was determined as the fold increase, whereas, the sensitivity was determined as the fold decrease in the IC50 of the drugs for the resistant cell lines compared to their genetically identical drug sensitive counterpart.

R2.2 (HCT116-RDAC) = test: MTT based cell survival assay, DAC resistant HCT116 clone R2.2; details: for fold change (resistance index): IC50 R2.2 / IC50 HCT116; for IC50: read-out: Mean IC50
Description: as §1, §2, §3, §4

R1.4 (HCT116-RDAC) = test: MTT based cell survival assay, DAC resistant HCT116 clone R1.4; details: for fold change (resistance index): IC50 R1.4 / IC50 HCT116; for IC50: read-out: Mean IC50
Description: as §1, §2, §3, §4

R2.1 (HCT116-RDAC) = test: MTT based cell survival assay, DAC resistant HCT116 clone R2.1; details: for fold change (resistance index): IC50 R2.1 / IC50 HCT116; for IC50: R2.1, MTT, 72 h drug treatment
Description: as §1, §2, §3, §4

HCT116 = test: MTT based cell survival assay, parental HCT116; details: read-out: Mean IC50
Description: To study the mechanism of resistance towards DNA methylation inhibitor, 2′-deoxy-5-azacytidine, we used the human colorectal cancer cell line (HCT116), human promyelocytic leukemia cells (HL-60), and human breast adenocarcinoma cell line (MCF-7) obtained from American Type Culture Collection (Manassas, Va.). The cell lines were cultured in complete growth media (Sigma-Aldrich, St. Louis, Mo.), supplemented with fetal bovine serum (FBS, PAN-Biotech GmbH, Aidenbach, Germany), 100 U/mL penicillin (Biotika, Slovenská L'upča, Slovak Republic) and 50 μg/mL streptomycin (Sigma-Aldrich), and the cultures were maintained at 37° C. and 5% CO2, in a humidified incubator. The cell line, HCT116 was grown in McCoy's 5 A medium supplemented with 10% FBS and 3 mM L-glutamine (Sigma-Aldrich), HL-60 was grown in Iscove's Modified Dulbecco's Medium with 20% FBS, and MCF-7 was grown in RPMI-1640 medium with 10% FBS.
The method is primarily based on reduction of yellow colored tetrazolium salt, 3-(4,5-dimethylthiazol-2-yl)-2,5-diphenyltetrazolium bromide (MTT) to insoluble purple colored formazan crystals by NAD(P)H-dependent oxidoreductase enzymes in mitochondria of the viable cell. The intensity of the purple color produced on solubilization of the formazan crystals is directly proportional to the number of viable cells (Meerloo J. V. et al., Methods in Molecular Biology 2011; 731, 237-45).
as §3, with “To determine the IC50 of the epigenetic drugs (Tocris Bioscience, Bristol, United Kingdom), four independent experiments were performed using triplicate wells of 96 well plates. Cells” for “Cells”, “[…],” for “After 72 h of drug treatment,”
as §4

R1.1 (HCT116-RDAC) = test: MTT based cell survival assay, DAC resistant HCT116 clone R1.1; details: for fold change (resistance index): IC50 R1.1 / IC50 HCT116; for IC50: read-out: Mean IC50
Description: as §1, §2, §3, §4

R1.3 (HCT116-RDAC) = test: MTT based cell survival assay, DAC resistant HCT116 clone R1.3; details: for fold change (resistance index): IC50 R1.3 / IC50 HCT116; for IC50: read-out: Mean IC50
Description: as §1, §2, §3, §4

[1] = HCT116 parental, MTT, 72 h drug treatment
[2] = Homo sapiens, HCT-116, R1.2, MTT, 72 h drug treatment
[3] = Homo sapiens, HCT-116, R2.2, MTT, 72 h drug treatment
[4] = Homo sapiens, HCT-116, R1.4, MTT, 72 h drug treatment
[5] = Homo sapiens, HCT-116, HCT116 parental, MTT, 72 h drug treatment
[6] = Homo sapiens, HCT-116, R1.1, MTT, 72 h drug treatment
[7] = Homo sapiens, HCT-116, R1.3, MTT, 72 h drug treatment

Structure (SMILES)	fold change (resistance index) (R1.2 (HCT116-RDAC))	IC50 (R1.2 (HCT116-RDAC); R1.2, MTT, 72 h drug treatment)	fold change (resistance index) (R2.2 (HCT116-RDAC))	IC50 (R2.2 (HCT116-RDAC); R2.2, MTT, 72 h drug treatment)	fold change (resistance index) (R1.4 (HCT116-RDAC))	IC50 (R1.4 (HCT116-RDAC); R1.4, MTT, 72 h drug treatment)	fold change (resistance index) (R2.1 (HCT116-RDAC))	IC50 (R2.1 (HCT116-RDAC))	IC50 (HCT116; [1])	fold change (resistance index) (R1.1 (HCT116-RDAC))	IC50 (R1.1 (HCT116-RDAC); R1.1, MTT, 72 h drug treatment)	fold change (resistance index) (R1.3 (HCT116-RDAC))	IC50 (R1.3 (HCT116-RDAC); R1.3, MTT, 72 h drug treatment)	IC50 (R1.2 (HCT116-RDAC); [2])	IC50 (R2.2 (HCT116-RDAC); [3])	IC50 (R1.4 (HCT116-RDAC); [4])	IC50 (R2.1 (HCT116-RDAC); Homo sapiens, HCT-116)	IC50 (HCT116; [5])	IC50 (R1.1 (HCT116-RDAC); [6])	IC50 (R1.3 (HCT116-RDAC); [7])	further results
CCCCCCCCCCCCCCCc1cccc(O)c1C(=O)O [Ancardic acid, Anacardic acid]	(1.06) fold	127 µM	(1.04) fold	125 µM	(1.02) fold	122 µM	(1.03) fold	124 µM	120 µM	(1.07) fold	128 µM	(1.04) fold	125 µM	–	–	–	–	–	–	–	–
Nc1ncn([C@@H]2O[C@H](CO)[C@@H](O)[C@H]2O)c(=O)n1 [AZA, 5-azacytidine]	(3.87) fold	–	(4.19) fold	–	(4.92) fold	–	(4.07) fold	–	–	(3.10) fold	–	(3.50) fold	–	11.7 µM	14.5 µM	14.9 µM	12.3 µM	3.02 µM	9.36 µM	10.6 µM	–
C/C=C1\NC(=O)[C@H]2CSSCC/C=C/[C@H](CC(=O)N[C@H](C(C)C)C(=O)N2)OC(=O)[C@H](C(C)C)NC1=O [Romidepsin]	(1.77) fold	–	(2.64) fold	–	(1.14) fold	–	(1.95) fold	–	–	(1.14) fold	–	(1.18) fold	–	–	–	–	0.0054 µM	–	–	–	IC50 (R1.2 (HCT116-RDAC); Homo sapiens, HCT-116, 72 h): 0.0049 µM; IC50 (R2.2 (HCT116-RDAC); Homo sapiens, HCT-116, 72 h): 0.0073 µM; IC50 (R1.4 (HCT116-RDAC); Homo sapiens, HCT-116, 72 h): 0.0031 µM; IC50 (HCT116; Homo sapiens, HCT-116, 72 h): 0.0028 µM; IC50 (R1.1 (HCT116-RDAC); Homo sapiens, HCT-116, 72 h): 0.0031 µM; IC50 (R1.3 (HCT116-RDAC); Homo sapiens, HCT-116, 72 h): 0.0033 µM
COc1cc2c(cc1-c1c(C)noc1C)ncc1[nH]c(=O)n([C@H](C)c3ccccn3)c12 [I-BET 151, I-BET 151 hydrochloride]	–	–	–	–	–	–	–	–	–	–	–	–	–	–	–	–	3.16 µM	–	–	–	IC50 (R1.2 (HCT116-RDAC); Homo sapiens, HCT-116, 72 h): 5.18 µM; fold change (sensitivity index) (R1.2 (HCT116-RDAC); IC50 HCT116 / IC50 R1.2): (1.01) fold; IC50 (R2.2 (HCT116-RDAC); Homo sapiens, HCT-116, 72 h): 5.4 µM; fold change (sensitivity index) (R2.2 (HCT116-RDAC); IC50 HCT116 / IC50 R2.2): (0.97) fold; IC50 (R1.4 (HCT116-RDAC); Homo sapiens, HCT-116, 72 h): 3.58 µM; fold change (sensitivity index) (R1.4 (HCT116-RDAC); IC50 HCT116 / IC50 R1.4): (1.46) fold; fold change (sensitivity index) (R2.1 (HCT116-RDAC); IC50 HCT116 / IC50 R2.1): (1.65) fold; IC50 (HCT116; Homo sapiens, HCT-116, 72 h): 5.23 µM; IC50 (R1.1 (HCT116-RDAC); Homo sapiens, HCT-116, 72 h): 2.68 µM; fold change (sensitivity index) (R1.1 (HCT116-RDAC); IC50 HCT116 / IC50 R1.1): (1.95) fold; IC50 (R1.3 (HCT116-RDAC); Homo sapiens, HCT-116, 72 h): 1.6 µM; fold change (sensitivity index) (R1.3 (HCT116-RDAC); IC50 HCT116 / IC50 R1.3): (3.28) fold
O=c1ncccn1[C@@H]1O[C@H](CO)[C@@H](O)[C@H]1O [Zebularine]	(1.19) fold	–	(1.19) fold	–	(1.19) fold	–	(1.19) fold	–	–	(1.19) fold	–	(1.19) fold	–	≥ 100 µM	≥ 100 µM	≥ 100 µM	≥ 100 µM	84.2 µM	≥ 100 µM	≥ 100 µM	–
O=C(O)c1ccc(O)c2ncccc12 [IOX1]	(2.15) fold	63.6 µM	(1.93) fold	57 µM	(1.96) fold	58.1 µM	(1.70) fold	50.2 µM	29.6 µM	(1.41) fold	41.6 µM	(1.80) fold	53.2 µM	–	–	–	–	–	–	–	–
CC1=NN(c2ccc(C(=O)O)cc2)C(=O)/C1=C\c1ccc(-c2cc(C)c(C)cc2[N+](=O)[O-])o1 [C646]	(1.51) fold	50.6 µM	(1.64) fold	55 µM	(1.53) fold	51.3 µM	(1.52) fold	51 µM	33.5 µM	(1.35) fold	45.1 µM	(1.42) fold	47.5 µM	–	–	–	–	–	–	–	–
COc1cc2nc(N3CCCN(C)CC3)nc(NC3CCN(Cc4ccccc4)CC3)c2cc1OC [BIX-01294]	(1.19) fold	–	(1.26) fold	–	(1.20) fold	–	(1.33) fold	–	–	(1.17) fold	–	(1.16) fold	–	3.02 µM	3.22 µM	3.05 µM	3.4 µM	2.55 µM	3 µM	2.97 µM	–
